Assay results as given in US20040157785A1, “Combination therapy comprising anti-diabetic and anticonvulsant agents” (priority 2000, published 2004).
Read-outs that look alike come from different tables or passages of the source.

Experiments:
[1] = tested on: patient with Type II diabetes; experiment: Case Study B: topiramate added to Glucotrol (glipizide) in a Type II diabetes patient; type: in vivo, human
Protocol: The ability of the compounds of formula I administered in combination with an anti-diabetic agent to treat Type II diabetes mellitus and Syndrome X is based on the following case studies. The patient was a person with a 5 year history of Type II diabetes. At the start of treatment, patient was taking 40 mg/day Glucotrol (glipizide, a sulfonylurea) and weighed 293 lbs. The patient was titrated on topiramate to 50 mg/day. After 1 month of treatment, patient reported that home measured blood sugars had dropped from a baseline of 300 mg/dl to measured blood sugars of 140 mg/dl. After 2 months, the patient indicated average blood sugar levels of 80-140 mg/dl and weight loss to 272 lbs.

[2] = tested on: simple and complex partial seizures and secondarily generalized seizures; settings: adjunctive therapy or monotherapy; cited from earlier work
[3] = tested on: markers of diabetes mellitus; experiment: Summary of the case studies: topiramate in combination with an anti-diabetic agent; type: in vivo, human; settings: oral administration in combination with an anti-diabetic agent
patient with diabetes = experiment: Case Study C: topiramate added to Glucophage, DiaBeta and Rezulin in a diabetes patient; type: in vivo, human
Protocol: The ability of the compounds of formula I administered in combination with an anti-diabetic agent to treat Type II diabetes mellitus and Syndrome X is based on the following case studies. The patient was a person with an 8 year history of diabetes. Prior to treatment, patient's weight was 201 lbs, Hgb A1C was 9.3% and blood sugar was 309 mg/dl. Patient was taking Glucophage (metformin hydrochloride) at four 500 mg tablets/day (2 tablets in the morning, 1 tablet in the afternoon and 1 tablett at night, for a total of 2000 mg/day), DiaBeta (glyburide) at 10 mg twice a day (total of 20 mg/day) and Rezulin (troglitazone) at 200 mg/day. Patient was started on topiramate at 75 mg b.i.d (150 mg/day). […] After 15 months patient's weight was 190 lbs with blood sugars controlled on 100 mg topiramate in the morning, 200 mg topiramate at night (Total of 300 mg/day), DiaBeta at 10 mg twice a day and Rezulin at 200 mg once a day.

[4] = tested on: patient with Type II diabetes; experiment: Case Study A: topiramate added to insulin (70/30) in a Type II diabetes patient; type: in vivo, human
Protocol: The ability of the compounds of formula I administered in combination with an anti-diabetic agent to treat Type II diabetes mellitus and Syndrome X is based on the following case studies. The patient was a person with a 6 year history of Type II diabetes. For the past four years the patient was being treated with insulin (70/30). At the start of treatment patient's weight was 236 lbs, measured cholesterol was 316 mg/dl and measured glucose was 166 mg/dl. The patient was started on Topiramate for treatment of seizures and titrated to 75 mg a day. […] After 16 months, patient's fasting glucose was 89 mg/dl.

seizures [5] = settings: several rodent models of epilepsy; cited from earlier work
seizures [6] = settings: animal model of kindled epilepsy; cited from earlier work
[7] = tested on: patient with elevated blood sugars; experiment: Case Study D: topiramate with Amaryl (glimepiride) in a patient with elevated blood sugars; type: in vivo, human
Protocol: The ability of the compounds of formula I administered in combination with an anti-diabetic agent to treat Type II diabetes mellitus and Syndrome X is based on the following case studies. The patient was a person, with a history of elevated blood sugars and a weight of 188 lbs. At the time of initial treatment, patient's blood sugar was 426 mg/dl. Patient was started on topiramate, titrated to 100 mg once a day. The patient was also prescribed […] (glimepiride). After 3 months, patient's blood sugar averaged in the upper 100s, lab sugars measured at 138 mg/dl, cholesterol at 278 mg/dl, triglycerides at 212 mg/dl and HgbA1C at 6.7%. […] Patient weighed 160 lbs. Patient was able to stop taking the […] due to improved sugar control. Due to concerns about weight loss, topiramate was decreased to 100 mg/day. After 21 months, patient's weight was 170 lbs, blood sugars were reported doing well. Lab measured glucose was 115 mg/dl, cholesterol was measured at 236 mg/dl, triglycerides at 106 mg/dl and HgbA1C at 5.7%.

[8] = after 3 months, topiramate 100 mg once a day with Amaryl
[9] = after 3 months, topiramate 100 mg once a day with Amaryl, initial 426 mg/dl
[10] = after 21 months, topiramate 100 mg/day, Amaryl stopped
[11] = after one year, topiramate increased to 200 mg/day

## CC1(C)O[C@@H]2[C@@H](CO[C@@]3(COS(N)(=O)=O)OC(C)(C)O[C@@H]23)O1 [topiramate, 2,3:4,5-bis-O-(1-methylethylidene)-β-D-fructopyranose sulfamate]
[1]; after 1 month, topiramate 50 mg/day with Glucotrol 40 mg/day, baseline 300 mg/dl
  home measured blood sugars: 140 mg/dL
[1]; after 2 months, topiramate 50 mg/day with Glucotrol 40 mg/day
  average blood sugar levels: 80 to 140 mg/dL
[1]; after 2 months, topiramate 50 mg/day with Glucotrol, start 293 lbs
  weight: 272 lbs
[2]
  efficacy in treating simple and complex partial seizures and secondarily generalized seizures: effective
[3]
  status of markers of diabetes mellitus (blood glucose, glycosylated hemoglobin, triglyceride levels): consistently improved
Patient with diabetes; after 15 months, topiramate 300 mg/day with DiaBeta and Rezulin, prior 201 lbs
  patient's weight: 190 lbs
Patient with diabetes; after 15 months, topiramate 300 mg/day, DiaBeta 10 mg twice a day, Rezulin 200 mg once a day
  blood sugars: controlled
Patient with diabetes; topiramate 75 mg b.i.d (150 mg/day) with Glucophage, DiaBeta, Rezulin, prior blood sugar 309 mg/dl
  blood sugars (patient indicated): doing better
Patient with diabetes; topiramate 150 mg b.i.d (300 mg/day) with DiaBeta and Rezulin
  need for Glucophage (sugar control): able to stop Glucophage
[4]; after 2 months, topiramate 75 mg a day with insulin (70/30), using the insulin less often
  blood sugar (patient indicated): improved significantly
[4]; after 16 months, with insulin (70/30), glucose at start 166 mg/dl
  fasting glucose: 89 mg/dL
[4]; after 18 months, with insulin (70/30), previously 150 to 160 mg/dl
  home measured blood sugars: less than 120 mg/dl
[4]; after one year, topiramate 200 mg b.i.d. with insulin (70/30)
  Hbg A1C: 6.94%
[4]; after one year, topiramate 200 mg b.i.d. with insulin (70/30), start 236 lbs
  patient's weight: 225 lbs
Seizures [5]
  seizure block: effectively block seizures
Seizures [6]
  seizure block: effectively block seizures
[7]; [8]
  HgbA1C: 6.7%
  cholesterol: 278 mg/dL
  triglycerides: 212 mg/dL
[7]; [9]
  blood sugar averaged: upper 100s
  lab sugars: 138 mg/dL
[7]; [10]
  HgbA1C: 5.7%
  blood sugars (reported): doing well
  cholesterol: 236 mg/dL
  lab measured glucose: 115 mg/dL
  patient's weight: 170 lbs
  triglycerides: 106 mg/dL
[7]; after one year, topiramate 200 mg/day
  need for Amaryl (sugar control): able to stop taking the Amaryl
[7]; after one year, topiramate 200 mg/day, start 188 lbs
  patient weight: 160 lbs
[7]; [11]
  cholesterol: 200 mg/dL
  lab measured blood sugars: 141 mg/dL
  triglycerides: 500 mg/dL
